Publication PMC8151276, “An Integrated Approach toward NanoBRET Tracers for Analysis of GPCR Ligand Engagement” (Molecules, 2021)

Target: T1, TSHR (Homo sapiens, UniProt P16473)
T1 construct: purchased Promega (in-house HiBiT-GPCR construct library, NanoBRET)
Assay: NanoBRET screen HiBiT-TSHR in HEK293
Type: binding
Method: Each tracer candidate was screened across the entire library of HiBiT-GPCR constructs using NanoBRET as the detection modality. As depicted in Figure 4A, the specificity of interactions was evaluated through decrease in BRET due to competitive displacement of a bound tracer by excess parental compound. Each tracer was analyzed for binding to each HiBiT-GPCR fusion in the absence and in the presence of competing parental compound. Briefly, HEK293 cells were transfected with HiBiT-GPCR constructs diluted into promoterless DNA to reduce expression and maximize translocation to the cell surface. Each tracer candidate was then screened at concentrations of 1 μM and 0.1 μM across cells expressing these fusions. Cells were treated for 1.5 h with tracer either alone or in the presence of 20 μM competing parental compound (i.e., control). BRET was measured upon addition of purified LgBiT and subsequent complementation with HiBiT genetically fused to a GPCR. The specificity of interactions was assessed through a decrease in BRET signal due to competitive displacement of the bound tracer. To further gauge the robustness of these interactions, the fold response over the control (i.e., BRETtracer/BRETcontrol) was calculated. We chose a 1.5-fold response, which translates to ≥7-fold signal over noise as the minimal threshold required to score an interaction as positive.
HiBiT-GPCR DNA constructs were diluted in 10 mM Tris pH 8 to a final concentration of 0.01 μg/μL, arrayed in 96-well plates and stored at −20 °C. For transfection, HEK293 cells were suspended in Opti-MEM (without phenol red) supplemented with 2% fetal bovine serum (Seradigm) and 100 units/mL penicillin–streptomycin (Gibco) at a final concentration of 220,000 cells/mL and dispensed into white 96-well plates at 90 μL/well. Subsequent transfections and screens were carried using an Agilent Bravo Automated Liquid Handling Platform. First, the 96-well HiBiT DNA arrays were diluted 25-fold in Opti-MEM (without serum or phenol red) to a final concentration of 0.0004 μg/μL and 20 μL of the diluted DNAs were transferred into new 96-well plates. Next, promoterless carrier DNA (1 μg/μL) was diluted 25-fold (0.04 μg/μL) and then dispensed into the diluted arrays at 20 μL/well. Following brief mixing, Viafect transfection reagent (Promega) diluted 16-fold into Opti-MEM was dispensed into the plates at 40 μL/well. After mixing by pipetting, plates were incubated for 10 min on the pipetting station deck. The DNA-transfection reagent complexes were then added to plates containing cells. To facilitate the screen, 10 μL of DNA-transfection reagent complexes were added in duplicates to the top 4 and bottom 4 rows, resulting in two identical 48-well arrays per plate. Plates with transfected cells were incubated for 18–20 h at 37 °C/5% CO2. A screen of each tracer across the entire library using two different concentrations requires duplicate plates of transfected cells. Depending on the number of tracers being screened, transfections can be scaled up using the same ratios. The next day, for each tracer, four 20× screening solutions in tracer dilution buffer (Promega) were prepared: two duplicates at final concentration of 20 μM and two duplicates at a final concentration of 2 μM. […] The four resulting solutions were diluted 4-fold in Opti-MEM without serum or phenol red to generate 5× solutions (5 µM and 0.5 µM tracer +/− 100 μM competing compound). To screen the library, a BioTek MultiFlo FX liquid dispenser was used to dispense 22.5 µL of tracer solution to the top 4 rows and 22.5 µL tracer + competing compound solution to the 4 bottom rows. Plates were briefly mixed on an orbital shaker and incubated for 1.5 h at room temperature. […] Plates were briefly mixed on an orbital shaker and incubated for 15 min to allow complementation.

T1 sequence (P16473 21-764): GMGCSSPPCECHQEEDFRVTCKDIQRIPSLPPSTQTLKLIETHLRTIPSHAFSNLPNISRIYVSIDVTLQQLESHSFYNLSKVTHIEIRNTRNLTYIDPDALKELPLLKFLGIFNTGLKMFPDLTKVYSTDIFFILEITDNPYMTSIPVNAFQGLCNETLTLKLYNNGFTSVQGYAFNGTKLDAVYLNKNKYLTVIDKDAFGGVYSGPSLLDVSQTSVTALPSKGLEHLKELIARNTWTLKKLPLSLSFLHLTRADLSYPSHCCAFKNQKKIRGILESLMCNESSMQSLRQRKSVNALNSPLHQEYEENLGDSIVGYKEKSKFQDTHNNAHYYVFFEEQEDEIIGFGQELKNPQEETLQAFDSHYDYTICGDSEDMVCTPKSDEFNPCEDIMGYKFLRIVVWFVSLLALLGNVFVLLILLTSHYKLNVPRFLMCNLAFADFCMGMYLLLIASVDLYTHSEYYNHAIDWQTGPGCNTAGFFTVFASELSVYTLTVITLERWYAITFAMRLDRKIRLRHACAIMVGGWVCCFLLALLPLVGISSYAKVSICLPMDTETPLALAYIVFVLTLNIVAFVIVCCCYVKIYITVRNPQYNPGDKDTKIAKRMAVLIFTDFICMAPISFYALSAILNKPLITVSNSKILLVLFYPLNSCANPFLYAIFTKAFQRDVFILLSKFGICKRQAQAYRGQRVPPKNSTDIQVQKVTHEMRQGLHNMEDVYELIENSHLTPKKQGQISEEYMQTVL

CN1CCN(C2=Nc3cc(Cl)ccc3Nc3ccc(CNC(=O)CCOCCOCCOCCOCCNC(=O)CCc4ccc5n4[B-](F)(F)[N+]4=C(c6ccc[nH]6)C=CC4=C5)cc32)CC1 [Clozapine-b-2-NB590]
NanoBRET Fold Response (TSHR, 0.1μM tracer): 1.04 | NanoBRET Fold Response (TSHR, 1μM tracer): 0.99

CCOC(=O)c1cc(C#N)c(N2CCC(C(=O)NS(=O)(=O)Cc3ccccc3/C=C/C(=O)NCCNC(=O)CCc3ccc4n3[B-](F)(F)[N+]3=C(c5ccc[nH]5)C=CC3=C4)CC2)nc1C [AZD1283-1-NB590]
NanoBRET Fold Response (TSHR, 0.1μM): 1.00 | NanoBRET Fold Response (TSHR, 1μM): 0.96

CC(C)N(CC[C@H](c1ccccc1)c1cc(CCNC(=O)CCOCCOCCOCCOCCNC(=O)CCc2ccc3n2[B-](F)(F)[N+]2=C(c4ccc[nH]4)C=CC2=C3)ccc1O)C(C)C [Tolterodine-2-NB590]
NanoBRET Fold Response (TSHR, tracer 0.1μM): 0.69 | NanoBRET Fold Response (TSHR, tracer 1μM): 1.20

CC(C)N(CC[C@H](c1ccccc1)c1cc(CCNC(=O)c2ccc(CNC(=O)CCc3ccc4n3[B-](F)(F)[N+]3=C(c5ccc[nH]5)C=CC3=C4)cc2)ccc1O)C(C)C [Tolterodine-BZ-NB590]
NanoBRET Fold Response (TSHR, tracer 0.1μM): 0.96 | NanoBRET Fold Response (TSHR, tracer 1μM): 1.08

O=C(CCOCCOCCOCCOCCNC(=O)CCc1ccc2n1[B-](F)(F)[N+]1=C(c3ccc[nH]3)C=CC1=C2)NCCCN1CCN(C2=Nc3ccccc3Oc3ccc(Cl)cc32)CC1 [Loxapine-a-2-NB590]
NanoBRET Fold Response (TSHR, tracer 0.1μM): 0.97 | NanoBRET Fold Response (TSHR, tracer 1μM): 1.07

CN1CCN(C2=Nc3cc(Cl)ccc3N(CC(=O)NCCOCCOCCOCCOCCNC(=O)CCc3ccc4n3[B-](F)(F)[N+]3=C(c5ccc[nH]5)C=CC3=C4)c3ccccc32)CC1 [Clozapine-c-2-NB590]
NanoBRET Fold Response (TSHR, 0.1μM tracer): 0.99 | NanoBRET Fold Response (TSHR, 1μM tracer): 1.04

Cc1nc2n(c(=O)c1CCN1CCC(c3noc4cc(F)ccc34)CC1)CCCC2OC(=O)NCCOCCOCCOCCOCCNC(=O)CCc1ccc2n1[B-](F)(F)[N+]1=C(c3ccc[nH]3)C=CC1=C2 (centres unmarked) [Risperidone-2-NB590]
NanoBRET Fold Response (TSHR, tracer 0.1μM): 1.00 | NanoBRET Fold Response (TSHR, tracer 1μM): 0.96

COc1ccc2[nH]c(-c3ccc(CNC(=O)CCOCCOCCOCCOCCNC(=O)CCc4ccc5n4[B-](F)(F)[N+]4=C(c6ccc[nH]6)C=CC4=C5)cc3)c(CCNC(C)=O)c2n1 [AzomelatoninICO9-2-NB590]
NanoBRET Fold Response (0.1μM tracer): 1.03 | NanoBRET Fold Response (1μM tracer): 0.95

COc1ccccc1N1CCN(CCCCN2C(=O)c3ccc(CNC(=O)CCOCCOCCOCCOCCNC(=O)CCc4ccc5n4[B-](F)(F)[N+]4=C(c6ccc[nH]6)C=CC4=C5)cc3C2=O)CC1 [NAN-190-2-NB590]
NanoBRET Fold Response (TSHR, tracer 0.1μM): 0.96 | NanoBRET Fold Response (TSHR, tracer 1μM): 1.06

O=C(CCc1ccc2n1[B-](F)(F)[N+]1=C(c3ccc[nH]3)C=CC1=C2)NCCOCCOCCNC(=O)OCCOCCN1CCN(C2=Nc3ccccc3Sc3ccccc32)CC1 [Quetiapine-a-2-NB590]
NanoBRET Fold Response (TSHR, tracer 0.1μM): 0.96 | NanoBRET Fold Response (TSHR, tracer 1μM): 0.92

O=C(CCOCCOCCOCCOCCNC(=O)CCc1ccc2n1[B-](F)(F)[N+]1=C(c3ccc[nH]3)C=CC1=C2)NCCCN1CCN(C2=Nc3cc(Cl)ccc3Nc3ccccc32)CC1 [Clozapine-a-2-NB590]
NanoBRET Fold Response (TSHR, 0.1μM tracer): 0.92 | NanoBRET Fold Response (TSHR, 1μM tracer): 1.05

N#CN=C(NCCCOc1cccc(CN2CCCCC2)c1)NCCNC(=O)CCOCCOCCOCCOCCNC(=O)CCc1ccc2n1[B-](F)(F)[N+]1=C(c3ccc[nH]3)C=CC1=C2 [Aminopotentidine-2-NB590]
NanoBRET Fold Response (TSHR, tracer 0.1μM): 1.07 | NanoBRET Fold Response (TSHR, tracer 1μM): 1.01

O=C(CCc1ccc2n1[B-](F)(F)[N+]1=C(c3ccc[nH]3)C=CC1=C2)NCc1ccc(C(=O)NCCOCCC(=O)N[C@@H]2CC[C@@]3(O)[C@H]4Cc5ccc(O)c6c5[C@@]3(CCN4CC3CC3)[C@H]2O6)cc1 [Naltrexone-3-NB590]
NanoBRET Fold Response (TSHR, tracer 0.1μM): 1.36 | NanoBRET Fold Response (TSHR, tracer 1μM): 1.06

COc1ccccc1N1CCN(CCCCN2C(=O)c3ccc(CNC(=O)CCOCCNC(=O)c4ccc(CNC(=O)CCc5ccc6n5[B-](F)(F)[N+]5=C(c7ccc[nH]7)C=CC5=C6)cc4)cc3C2=O)CC1 [NAN-190-3-NB590]
NanoBRET Fold Response (TSHR, tracer 0.1μM): 1.01 | NanoBRET Fold Response (TSHR, tracer 1μM): 1.04

CCCn1c(=O)c2[nH]c(-c3ccc(OCC(=O)NCCNC(=O)CCOCCNC(=O)c4ccc(CNC(=O)CCc5ccc6n5[B-](F)(F)[N+]5=C(c7ccc[nH]7)C=CC5=C6)cc4)cc3)nc2n(CCC)c1=O [XAC-3-NB590]
NanoBRET Fold Response (TSHR, tracer 0.1μM): 1.08 | NanoBRET Fold Response (TSHR, tracer 1μM): 1.03

COc1ccc2c(n1)c(CCNC(C)=O)cn2CCNC(=O)CCc1ccc2n1[B-](F)(F)[N+]1=C(c3ccc[nH]3)C=CC1=C2 [Azamelatonin-1-NB590]
NanoBRET Fold Response (0.1μM tracer): 1.25 | NanoBRET Fold Response (1μM tracer): 0.91
